Results reported in ChEMBL document CHEMBL4392877, “Cytotoxic Pregnane Steroidal Glycosides from Chonemorpha megacalyx” (J Nat Prod, 2019).

Tests used:
A549 = assay: Antiproliferative activity against human A549 cells measured after 48 hrs by MTT assay; type: functional, cell-based; details: A549, 48 h
WI-38 = assay: Cytotoxicity activity against human WI38 cells measured after 48 hrs by MTT assay; type: cell-based; details: WI-38, 48 h
PC-3 = assay: Antiproliferative activity against human PC3 cells measured after 48 hrs by MTT assay; type: functional, cell-based; details: PC-3, 48 h
HepG2 = assay: Antiproliferative activity against human HepG2 cells measured after 48 hrs by MTT assay; type: functional, cell-based; details: HepG2, 48 h

Structure (SMILES)	IC50 (A549) [µM]	IC50 (WI-38) [µM]	IC50 (PC-3) [µM]	IC50 (HepG2) [µM]
CO[C@H]1C[C@H](O[C@H]2CC[C@@]3(C)[C@@H](CC[C@H]4C5=CC(=O)[C@@H]6[C@@H](C)OC(=O)[C@]56CC[C@@H]43)C2)O[C@H](C)[C@H]1O	> 50	> 50	> 50	> 50
C[C@H]1OC(=O)[C@]23CC[C@@H]4[C@@]5(C)CC[C@H](O)CC5=CC[C@@]4(O)[C@@]2(O)CC[C@H]13	> 50	> 50	> 50	> 50
C[C@H]1OC(=O)[C@]23CC[C@H]4[C@@H](CC[C@H]5C[C@@H](O)CC[C@@]54C)[C@@]2(O)CC[C@H]13	> 50	> 50	> 50	> 50
CO[C@H]1C[C@@H](O[C@H]2[C@@H](O)C[C@H](O[C@H]3CC[C@@]4(C)[C@@H](CC[C@H]5C6=CC(=O)[C@@H]7[C@@H](C)OC(=O)[C@]67CC[C@@H]54)C3)O[C@@H]2C)O[C@H](C)[C@H]1O	> 50	> 50	> 50	> 50
CO[C@H]1C[C@H](O[C@H]2CC[C@@]3(C)C(=CC[C@H]4C5=CC(=O)[C@@H]6[C@@H](C)OC(=O)[C@]56CC[C@@H]43)C2)O[C@H](C)[C@H]1O[C@@H]1C[C@@H](OC)[C@H](O)[C@@H](C)O1	2.4	5.5	3.6	2
C[C@H]1OC(=O)[C@]23CC[C@H]4[C@@H](C(C=O)=C5C[C@@H](O)CC[C@@]54C)[C@@]2(O)CC[C@H]13	> 50	> 50	> 50	> 50
CO[C@H]1C[C@@H](O[C@@H]2[C@H](O)C[C@H](O[C@H]3CC[C@@]4(C)C(=CC[C@H]5C6=CC(=O)[C@@H]7[C@@H](C)OC(=O)[C@]67CC[C@@H]54)C3)O[C@@H]2C)O[C@H](C)[C@H]1O	> 50	> 50	> 50	> 50
CO[C@H]1C[C@H](O[C@H]2CC[C@@]3(C)C(=CC[C@@H]4[C@@H]3CC[C@]35C(=O)O[C@H](C)[C@H]3CC[C@]45O)C2)O[C@H](C)[C@H]1O[C@@H]1C[C@H](OC)[C@H](O[C@@H]2C[C@@H](OC)[C@H](O)[C@@H](C)O2)[C@@H](C)O1	> 50	> 50	> 50	> 50
C[C@H]1O[C@@H](O[C@H]2CC[C@@]3(C)[C@@H](CC[C@H]4C5=CC(=O)[C@@H]6[C@@H](C)OC(=O)[C@]56CC[C@@H]43)C2)C[C@H](O)[C@@H]1O	> 50	> 50	> 50	> 50
C[C@H]1O[C@@H](O[C@H]2CC[C@@]3(C)C(=CC[C@H]4C5=CC(=O)[C@@H]6[C@@H](C)OC(=O)[C@]56CC[C@@H]43)C2)C[C@H](O)[C@@H]1O	> 50	> 50	> 50	> 50
CO[C@H]1C[C@H](O[C@H]2CC[C@@]3(C)C(=C(C=O)[C@@H]4[C@@H]3CC[C@]35C(=O)O[C@H](C)[C@H]3CC[C@]45O)C2)O[C@H](C)[C@H]1O	> 50	> 50	> 50	> 50
CO[C@H]1C[C@H](O[C@H]2CC[C@@]3(C)[C@@H](CC[C@H]4C5=CC(=O)[C@@H]6[C@@H](C)OC(=O)[C@]56CC[C@@H]43)C2)O[C@H](C)[C@H]1O[C@H]1C[C@@H](OC)[C@H](O)[C@@H](C)O1	> 50	> 50	> 50	> 50
CO[C@H]1C[C@@H](O[C@H]2[C@@H](O)C[C@H](O[C@H]3CC[C@@]4(C)C(=CC[C@@H]5[C@@H]4CC[C@]46C(=O)O[C@H](C)[C@H]4CC[C@]56O)C3)O[C@@H]2C)O[C@H](C)[C@H]1O	> 50	> 50	> 50	> 50
CO[C@H]1C[C@@H](O[C@H]2[C@@H](OC)C[C@H](O[C@H]3CC[C@@]4(C)C(=CC[C@@H]5[C@@H]4CC[C@]46C(=O)O[C@H](C)[C@H]4CC[C@]56O)C3)O[C@@H]2C)O[C@H](C)[C@H]1O	> 50	> 50	> 50	> 50
COc1cccc2c1C(=O)c1c(O)c3c(c(O)c1C2=O)C[C@@](O)(C(=O)CO)C[C@@H]3O[C@H]1C[C@H](N)[C@H](O)[C@H](C)O1 [DOXORUBICIN]	0.5 to 0.8	–	0.5 to 0.8	0.5 to 0.8
